Values quoted from earlier work in patent US20240000727A1, “STABLE COATED SOLID PHARMACEUTICAL COMPOSITION OF AN OPIOID ANALGESIC AND AN ANTI-EPILEPTIC FOR PAIN” (LABORATORIOS SILANES S.A. DE C.V., priority 2020, published 2024).

System: moderate to severe postoperative pain
Details: intravenous or intramuscular; patients with moderate to severe postoperative pain

Q: For `COc1cccc([C@@]2(O)CCCC[C@@H]2CN(C)C)c1` [tramadol, (1R,2R)-2-[(dimethylamino)methyl]-1-(3-methoxyphenyl)cyclohexan-1-ol], which “Potency relative to nalbuphine” value is on record?
A: one-fifth as potent

Q: And the “Potency relative to pethidine (meperidine)” value?
A: equivalent
